# Measured values taken from patent US8952024B2, “Herbicidal pyrimidone derivatives” (E I du Pont de Nemours and Company, priority 2009, dated 2015).
# What was measured:
# Test in all cases: Test B pre-/postemergence plant response
# Assay type in all cases: in vivo
# [1] = tested on: goosegrass (Eleusine indica); conditions: Preemergence, 62 g ai/ha; scale 0 to 100, 0 no effect, 100 complete control
# [2] = tested on: sunflower (common oilseed sunflower, Helianthus annuus); conditions: Preemergence; for Sunflower plant response rating: 125 g ai/ha
# In short: (§1)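 Response scores were assigned visually after 13 to 15 days in a greenhouse, comparing treated pots with controls on a 0–100 scale where 100 denotes complete control. Preemergence treatments went onto freshly seeded loam/sand soil; postemergence treatments onto plants 2 to 18 cm tall.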
# [3] = tested on: cocklebur (Xanthium strumarium); conditions: for Cocklebur plant response rating: scale 0 to 100
# In short: as §1
# [4] = tested on: large crabgrass (Digitaria sanguinalis)
# In short: as §1
# [5] = tested on: yellow nutsedge (Cyperus esculentus)
# In short: as §1
# kochia (Kochia scoparia) = conditions: Postemergence; for Plant response rating, Kochia: scale 0 (no effect) to 100 (complete control); for Kochia plant response rating: 250 g ai/ha, scale 0 to 100
# In short: as §1
# [6] = tested on: galium (catchweed bedstraw, Galium aparine); conditions: Preemergence; for Galium plant response rating: 125 g ai/ha
# In short: as §1
# [7] = tested on: lambsquarters (Chenopodium album)
# In short: as §1
# [8] = tested on: nightshade (eastern black nightshade, Solanum ptycanthum); conditions: Preemergence; for Nightshade plant response rating: 125 g ai/ha
# In short: as §1
# [9] = tested on: Surinam grass (Brachiaria decumbens)
# In short: as §1
# [10] = tested on: woolly cupgrass (Eriochloa villosa)
# In short: as §1
# wild oat (Avena fatua) = tested on: wild oat (Avena fatua)
# In short: as §1
# [11] = 31 g ai/ha, scale 0 to 100 (0 no effect, 100 complete control)
# [12] = 250 g ai/ha, Preemergence, 0 to 100 scale
# [13] = Postemergence, 31 g ai/ha, scale 0 to 100 (0 no effect, 100 complete control)
# [14] = Postemergence, 62 g ai/ha, scale 0 (no effect) to 100 (complete control), 13 to 15 days
# [15] = Postemergence, 125 g ai/ha, visual rating after 13 to 15 days, scale 0 (no effect) to 100 (complete control)
# [16] = Preemergence, 31 g ai/ha, scale 0 to 100 (0 no effect, 100 complete control)
# [17] = Postemergence, 250 g ai/ha, scale 0 to 100
# [18] = Preemergence, 62 g ai/ha, scale 0 to 100, 0 no effect, 100 complete control
# [19] = Preemergence, 125 g ai/ha, 0 to 100 scale
# [20] = 125 g ai/ha, visual rating after 13 to 15 days
# [21] = 62 g ai/ha, scale 0 to 100, 0 no effect, 100 complete control
compound,measurement,setting,value
Cc1ccc(-n2c(-c3cccc(Cl)c3)ncc(C(=O)C3=C(O)CCCC3=O)c2=O)cc1 [Compound 39],"Plant response rating, Goosegrass",[1],100
same,"Plant response rating, Sunflower","[2]; 250 g ai/ha, 0 to 100 scale",65
same,"Plant response rating, Sunflower",[2]; [11],0
same,Sunflower plant response rating,[2]; 0 to 100 scale,25
same,"Plant response rating, Cocklebur",[3]; [12],45
same,"Plant response rating, Cocklebur",[3]; [13],75
same,"Plant response rating, Cocklebur",[3]; [14],75
same,"Plant response rating, Cocklebur",[3]; [15],95
same,Cocklebur plant response rating,"[3]; Postemergence, 250 g ai/ha",98
same,"Plant response rating, Cocklebur",[3]; [16],0
same,"Plant response rating, Crabgrass, Large",[4]; [12],100
same,"Plant response rating, Crabgrass, Large",[4]; [13],75
same,"Plant response rating, Crabgrass, Large",[4]; [14],80
same,"Plant response rating, Crabgrass, Large",[4]; [15],85
same,"Crabgrass, Large plant response rating",[4]; [17],90
same,"Plant response rating, Crabgrass, Large",[4]; [16],55
same,"Plant response rating, Crabgrass, Large",[4]; [18],95
same,"Crabgrass, Large plant response rating",[4]; [19],100
same,"Plant response rating, Nutsedge, Yellow",[5]; [12],10
same,"Plant response rating, Nutsedge, Yellow",[5]; [14],0
same,"Plant response rating, Nutsedge, Yellow",[5]; [15],15
same,"Plant response rating, Nutsedge, Yellow",[5]; [16],0
same,"Nutsedge, Yellow plant response rating",[5]; [19],0
same,"Plant response rating, Kochia","kochia (Kochia scoparia); 62 g ai/ha, 13 to 15 days",45
same,"Plant response rating, Kochia",kochia (Kochia scoparia); [20],60
same,Kochia plant response rating,kochia (Kochia scoparia),95
same,"Plant response rating, Galium","[6]; 250 g ai/ha, 0 to 100 scale",85
same,"Plant response rating, Galium",[6]; [11],70
same,"Plant response rating, Galium",[6]; [21],80
same,Galium plant response rating,[6]; 0 to 100 scale,85
same,"Plant response rating, Lambsquarters",[7]; [12],100
same,"Plant response rating, Lambsquarters",[7]; [14],95
same,"Plant response rating, Lambsquarters",[7]; [15],100
same,Lambsquarters plant response rating,[7]; [17],100
same,"Plant response rating, Lambsquarters",[7]; [16],100
same,"Plant response rating, Lambsquarters",[7]; [18],100
same,Lambsquarters plant response rating,[7]; [19],100
same,"Plant response rating, Nightshade","[8]; 250 g ai/ha, 0 to 100 scale",100
same,"Plant response rating, Nightshade",[8]; [11],50
same,"Plant response rating, Nightshade",[8]; [21],100
same,Nightshade plant response rating,[8]; 0 to 100 scale,100
same,"Plant response rating, Surinam Grass",[9]; [12],15
same,"Plant response rating, Surinam Grass",[9]; [14],65
same,"Plant response rating, Surinam Grass",[9]; [15],65
same,"Plant response rating, Surinam Grass",[9]; [16],0
same,Surinam Grass plant response rating,[9]; [19],10
same,"Plant response rating, Cupgrass, Woolly",[10]; [12],10
same,"Plant response rating, Cupgrass, Woolly",[10]; [13],65
same,"Plant response rating, Cupgrass, Woolly",[10]; [14],85
same,"Plant response rating, Cupgrass, Woolly",[10]; [15],85
same,"Cupgrass, Woolly plant response rating",[10]; [17],90
same,"Plant response rating, Cupgrass, Woolly",[10]; [16],0
same,"Plant response rating, Cupgrass, Woolly",[10]; [18],0
same,"Cupgrass, Woolly plant response rating",[10]; [19],0
same,"Plant response rating, Oat, Wild",wild oat (Avena fatua); [12],0
same,"Plant response rating, Oat, Wild",wild oat (Avena fatua); [14],20
same,"Plant response rating, Oat, Wild",wild oat (Avena fatua); [15],30
same,"Plant response rating, Oat, Wild",wild oat (Avena fatua); [16],0
same,"Oat, Wild plant response rating",wild oat (Avena fatua); [19],0
Cc1cccc(-n2c(-c3cccc(Cl)c3)ncc(C(=O)C3=C(O)CCCC3=O)c2=O)c1 [Compound 45],"Plant response rating, Goosegrass",[1],100
same,"Plant response rating, Sunflower","[2]; 250 g ai/ha, 0 to 100 scale",75
same,"Plant response rating, Sunflower",[2]; [11],0
same,Sunflower plant response rating,[2]; 0 to 100 scale,10
same,"Plant response rating, Cocklebur",[3]; [13],10
same,"Plant response rating, Cocklebur",[3]; [14],50
same,"Plant response rating, Cocklebur",[3]; [15],70
same,Cocklebur plant response rating,"[3]; Postemergence, 250 g ai/ha",95
same,"Plant response rating, Crabgrass, Large",[4]; [12],100
same,"Plant response rating, Crabgrass, Large",[4]; [13],65
same,"Plant response rating, Crabgrass, Large",[4]; [14],75
same,"Plant response rating, Crabgrass, Large",[4]; [15],75
same,"Crabgrass, Large plant response rating",[4]; [17],85
same,"Plant response rating, Crabgrass, Large",[4]; [16],45
same,"Plant response rating, Crabgrass, Large",[4]; [18],95
same,"Crabgrass, Large plant response rating",[4]; [19],100
same,"Plant response rating, Nutsedge, Yellow",[5]; [12],70
same,"Plant response rating, Nutsedge, Yellow",[5]; [14],10
same,"Plant response rating, Nutsedge, Yellow",[5]; [15],45
same,"Plant response rating, Nutsedge, Yellow",[5]; [16],0
same,"Nutsedge, Yellow plant response rating",[5]; [19],20
same,"Plant response rating, Kochia","kochia (Kochia scoparia); 62 g ai/ha, 13 to 15 days",0
same,"Plant response rating, Kochia",kochia (Kochia scoparia); [20],15
same,Kochia plant response rating,kochia (Kochia scoparia),98
same,"Plant response rating, Galium","[6]; 250 g ai/ha, 0 to 100 scale",85
same,"Plant response rating, Galium",[6]; [11],40
same,"Plant response rating, Galium",[6]; [21],40
same,Galium plant response rating,[6]; 0 to 100 scale,50
same,"Plant response rating, Lambsquarters",[7]; [12],100
same,"Plant response rating, Lambsquarters",[7]; [14],98
same,"Plant response rating, Lambsquarters",[7]; [15],100
same,Lambsquarters plant response rating,[7]; [17],100
same,"Plant response rating, Lambsquarters",[7]; [16],100
same,"Plant response rating, Lambsquarters",[7]; [18],100
same,Lambsquarters plant response rating,[7]; [19],100
same,"Plant response rating, Nightshade","[8]; 250 g ai/ha, 0 to 100 scale",100
same,"Plant response rating, Nightshade",[8]; [11],98
same,"Plant response rating, Nightshade",[8]; [21],100
same,Nightshade plant response rating,[8]; 0 to 100 scale,100
same,"Plant response rating, Surinam Grass",[9]; [12],98
same,"Plant response rating, Surinam Grass",[9]; [14],75
same,"Plant response rating, Surinam Grass",[9]; [15],95
same,"Plant response rating, Surinam Grass",[9]; [16],45
same,Surinam Grass plant response rating,[9]; [19],98
same,"Plant response rating, Cupgrass, Woolly",[10]; [12],75
same,"Plant response rating, Cupgrass, Woolly",[10]; [13],70
same,"Plant response rating, Cupgrass, Woolly",[10]; [14],75
same,"Plant response rating, Cupgrass, Woolly",[10]; [15],75
same,"Cupgrass, Woolly plant response rating",[10]; [17],80
same,"Plant response rating, Cupgrass, Woolly",[10]; [16],45
same,"Plant response rating, Cupgrass, Woolly",[10]; [18],45
same,"Cupgrass, Woolly plant response rating",[10]; [19],60
same,"Plant response rating, Oat, Wild",wild oat (Avena fatua); [12],5
same,"Plant response rating, Oat, Wild",wild oat (Avena fatua); [14],55
same,"Plant response rating, Oat, Wild",wild oat (Avena fatua); [15],60
same,"Plant response rating, Oat, Wild",wild oat (Avena fatua); [16],0
same,"Oat, Wild plant response rating",wild oat (Avena fatua); [19],0
